Test results as given in US9499554B2, “Anti-influenza compositions and methods” (priority 2013, dated 2016).
Values after ≈ are worked out from the molar mass of the structure shown. Read-outs that look alike come from different tables or passages of the source. Marks after values point to notes of the source that are not given here.

How the values were obtained:
[1] = tested on: Influenza A H1N1 CA/04/2009 (Pandemic H1N1); experiment: microbe, parasite or virus in culture; format: cell-based
[2] = tested on: Influenza A H3N2 Brisbane/10/2007; experiment: microbe, parasite or virus in culture; format: cell-based
[3] = tested on: Influenza A H5N1 VN/1203/2004 Hybrid (on H1N1 backbone); experiment: microbe, parasite or virus in culture; format: cell-based
Influenza B Florida [4] = experiment: microbe, parasite or virus in culture; format: cell-based
[5] = tested on: Parainfluenza 3 14702 (MA-104 cells); experiment: organism not typed; format: cell-based
[6] = tested on: Influenza A H1N1 CA/04/2009 (Pandemic H1N1); experiment: microbe, parasite or virus in culture; format: cell-based; settings: for EC50: Influenza A virus
[7] = tested on: Influenza A H3N2 Brisbane/10/2007; experiment: microbe, parasite or virus in culture; format: cell-based; settings: for EC50: Influenza A virus
[8] = tested on: Influenza A H5N1 VN/1203/2004 Hybrid (on H1N1 backbone); experiment: microbe, parasite or virus in culture; format: cell-based; remark: listed apart in the source
Influenza B Florida [9] = experiment: microbe, parasite or virus in culture; format: cell-based; settings: for EC50: Influenza B virus
[10] = tested on: Parainfluenza 3 14702 (MA-104 cells); experiment: organism not typed; format: cell-based; remark: listed apart in the source
A/CA/27/2007 (H1N1) = experiment: microbe, parasite or virus in culture; format: cell-based; settings: Influenza A virus, H1N1, MDCK, read-out: EC50, antiviral activity in MDCK cells
A/Vic/3/75 (H3N2) = experiment: microbe, parasite or virus in culture; format: cell-based; settings: Influenza A virus, H3N2, MDCK, read-out: EC50, antiviral activity in MDCK cells
influenza viruses [11] = experiment: organism not typed; format: cell-based; settings: read-out: EC50 values against the influenza viruses by visual assay
influenza viruses [12] = experiment: organism not typed; format: cell-based; settings: read-out: EC50 values against the influenza viruses as measured by NR assay
[13] = tested on: influenza virus H3N2 (A/Victoria/3/75); experiment: microbe, parasite or virus in culture; format: cell-based; settings: H3N2, MDCK; 72 hrs; read-out: Percent Inhibition of Cytopathic Effect
[14] = tested on: H3N2 virus (A/Victoria/3/75); parameters: species or system Balb/C mice; settings: mouse, in vivo
[15] = tested on: H3N2 virus (A/Victoria/3/75); parameters: species or system Balb/C mice; settings: mouse, in vivo, po
MDCK cells [16] = settings: dog
MA-104 cells [17] = settings: African green monkey
MDCK cells [18] = settings: dog; remark: listed apart in the source
MA-104 cells [19] = settings: African green monkey; remark: listed apart in the source
in vivo = settings: female, Balb/c, mouse, po, 100 mg/kg

Nc1ncnc2c([C@@H]3N[C@H](CO)[C@@H](O)[C@H]3O)c[nH]c12 [compound 1, (2S,3S,4R,5R)-2-(4-Amino-5H-pyrrolo[3,2-d]pyrimidin-7-yl)-5-(hydroxymethyl)pyrrolidine-3,4-diol]
SI, Visual CPE Assay [1]: 120 | EC50 ([1]; Influenza A virus, H1N1, read-out: EC50, Visual CPE Assay): 1.8 µg/mL (≈ 6.79 µM) | SI, Visual CPE Assay [2]: 140 | EC50 ([2]; Influenza A virus, H3N2, read-out: EC50, Visual CPE Assay): 1.8 µg/mL (≈ 6.79 µM) | SI, Visual CPE Assay [3]: >1600 | SI, Visual CPE Assay (Influenza B Florida [4]): 290 | EC50 (Influenza B Florida [4]; Influenza B virus, Influenza B Florida, read-out: EC50, Visual CPE Assay): 1.8 µg/mL (≈ 6.79 µM) | SI, Visual CPE Assay [5]: 7.1 | EC50 ([5]; MA104, read-out: EC50, Visual CPE Assay): 14 µg/mL (≈ 52.8 µM) | SI, Neutral Red Uptake Assay [6]: 120 | EC50 ([6]; H1N1, MDCK, read-out: EC50, antiviral activity in MDCK cells): 1.8 µg/mL (≈ 6.79 µM) | EC50 ([6]; H1N1, read-out: EC50, Neutral Red Uptake Assay): 1.8 µg/mL (≈ 6.79 µM) | SI, Neutral Red Uptake Assay [7]: 79 | EC50 ([7]; H3N2, MDCK, read-out: EC50, antiviral activity in MDCK cells): 5.6 µg/mL (≈ 21.1 µM) | EC50 ([7]; H3N2, read-out: EC50, Neutral Red Uptake Assay): 5.6 µg/mL (≈ 21.1 µM) | SI, Neutral Red Uptake Assay [8]: 130 | SI, Neutral Red Uptake Assay (Influenza B Florida [9]): 38 | EC50 (Influenza B Florida [9]; B/Florida, MDCK cells, Table 2, read-out: EC50, antiviral activity in MDCK cells): 1.8 µg/mL (≈ 6.79 µM) | EC50 (Influenza B Florida [9]; Influenza B Florida, read-out: EC50, Neutral Red Uptake Assay): 1.8 µg/mL (≈ 6.79 µM) | SI, Neutral Red Uptake Assay [10]: 52 | EC50 ([10]; MA104, read-out: EC50, Neutral Red Uptake Assay): 10 µg/mL (≈ 37.7 µM) | EC50 (A/CA/27/2007 (H1N1)): 0.66 µg/mL (≈ 2.49 µM) | EC50 (A/Vic/3/75 (H3N2)): 4 µg/mL (≈ 15.1 µM) | EC50 (influenza viruses [11]): 0.63 to 1.8 µg/mL (≈ 2.37 to 6.79 µM) | EC50 (influenza viruses [12]): 1.8 to 5.6 µg/mL (≈ 6.79 to 21.1 µM) | inhibition at 1.8 µM [13]: 1.6 ± 6.1% | inhibition at 7.8 µM [13]: 25.8 ± 4.8% | Mean day to death (Mean ± SEM) [14]: >16 days | Survival/Total [14]: 10/10* | effect on survival and weight loss in infected mice [14]: improves the survival and weight loss | effect on survival and weight loss in infected mice [15]: improves the survival and weight loss | Mean day to death (Mean ± SEM) ([15]; 30 mg/kg/day): >16 days | Mean weight change (grams ± SEM) Day 9 ([15]; 30 mg/kg/day): −1.58 ± 0.32 grams | Survival/Total ([15]; 30 mg/kg/day): 10/10* | Mean day to death (Mean ± SEM) ([15]; 100 mg/kg/day): >16 days | Survival/Total ([15]; 100 mg/kg/day): 10/10* | Mean day to death (Mean ± SEM) ([15]; 300 mg/kg/day): >16 days | Mean weight change (grams ± SEM) Day 9 ([15]; 300 mg/kg/day): 0.66 ± 0.23 grams | Survival/Total ([15]; 300 mg/kg/day): 10/10* | IC50 (50% cytotoxic dose), Visual CPE Assay (MDCK cells [16]): >1000 µg/mL | IC50 (50% cytotoxic dose), Visual CPE Assay (MA-104 cells [17]): 100 µg/mL (≈ 377 µM) | IC50 (50% cytotoxic dose), Neutral Red Uptake Assay (MDCK cells [18]): 130 µg/mL (≈ 490 µM) | IC50 (50% cytotoxic dose), Neutral Red Uptake Assay (MA-104 cells [19]): 52 µg/mL (≈ 196 µM) | concentration at 0.17 hr (in vivo): 607 ± 61 ng/mL | concentration at 0.5 hr (in vivo): 910 ± 122 ng/mL | concentration at 1 hr (in vivo): 342 ± 122 ng/mL | concentration at 3 hr (in vivo): 89.7 ± 8.5 ng/mL | concentration at 5 hr (in vivo): 94.2 ± 6.4 ng/mL | concentration at 24 hr (in vivo): 50.5 ± 8.9 ng/mL
